Columns and labels:
Type in all cases: cell-based
[1] = tested on: ERK, Akt and mTORC1 signaling pathways; assay: ERK, Akt and mTORC1 signalling in HiB5 cells (western blot)
Method: Figure 3 Prosurvival effect of VCE-003.2 in hippocampal neural progenitor HiB5 cells. (a,b) HiB5 cells in proliferative and differentiation conditions respectively were incubated with increasing concentrations of VCE-003.2 and cell viability was assessed using the MTT test after 48 h. (c) Cell viability and ERK1/2 phosphorylation status (activation) was determined in VCE-003.2-treated cells in the absence or presence of GW9662 (5 μM). (d) VCE-003.2 time-dependent regulation of the ERK, Akt and mTORC1 signaling pathways were determined by incubation with anti-phospho-ERK, phospho-Akt and phospho-S6 antibodies. Loading control was performed with α-tubulin antibody. Representative western blots and densitometry quantification of three independent experiments are shown. Values are expressed as means ± S.D. *p < 0.05; **p < 0.01 vs. Vehicle; ^#p < 0.05 vs. VCE-003.2.
Cleared cell extracts were subjected to SDS-PAGE, transferred to polyvinylidene difluoride membranes, and incubated with the correspondent primary antibodies against phospho-ERK1/2 (Thr202/Tyr204; Cell Signaling Technology, Danvers, MA, USA), phospho-S6 ribosomal protein (Ser235/236) (Cell Signaling Technology), phospho-Akt (Ser473) (Cell Signaling Technology) and α-tubulin (Sigma-Aldrich) overnight at 4 °C. After washing membranes, horseradish peroxidase-conjugated secondary antibody was added and detected by chemiluminescence system. Loading controls were performed with an anti-α-tubulin antibody. Densitometric quantification of the luminograms was performed using a GS-700 Imaging densitometer (Bio-Rad, Hercules, CA) and Image J software.

[2] = tested on: Nrf2 pathway; assay: Nrf2 transcriptional assay (NQO1-ARE-Luc) in N2a cells; details: 6 hours
Method: Nrf2 transcriptional assay: To study Nrf2 transcriptional activity N2a cells were seeded (105/ml) in 24-well plates and transientl y transfected with the plasmid NQO1-ARE-Luc using Roti©-Fect following the manufacturer’s instructions (Carl Roth, Karlsruhe, German y). After 24 hours, cells were incubated wi th the compounds at the concentrations indicated during 6 hours and the luciferase activit y was determined using an Autolumat LB 953 (EG&G Berthold, Bad Wildbad, Germany). Protein content was determined b y the Bradford method to calculate R LU/Pg of protein and the results were expressed as a fold induction over untreated cells.
Supplementary Figure S1. Non-elect rophilic activity for VCE-003.2. (a) Reactive ox ygen species production.
In cu c yt e TM Liv e-Cell Im agin g S ystem. Results are ex pressed as m ean of t otal integrated intensity (ROS positive cells) ± S.D. (b) Effect on Nrf2 transcriptional activity. N2a cells were transientl y trans fected with the NQO1-ARE-Luc plasmid and incubated with the indicated compound concentrations for 6 hours prior to luciferase activit y determination.
Results are expressed as the fold induction ± S.D. relative to untreated control. All the results are representative of at least three independent experiments. Statistics: **p<0.01 VCE-003 treatment vers us Vehicle treated cells.

[3] = tested on: N2a cells; assay: Glutamate-induced excitotoxicity in N2a cells (MTT); details: 15 mM glutamate 24 h
Method: Figure 1 VCE-003.2 synthesis and characterization. (a) Schematic representation of VCE-003.2 synthesis. […] The indicated concentrations were tested and results were plotted to obtain the polynomial trend on a logarithmic range. IC50 values are indicated within the graph. […]. HEK293 cells were co-transfected with GAL4-PPARγ and GAL4-luc and incubated with the indicated compound concentrations for 6 hours prior to luciferase activity determination. Results are expressed as the fold induction ± S.D. relative to untreated control. (d) N2a cells were incubated with VCE-003 and VCE-003.2 as indicated during 24 hours and cell viability was determined by the MTT assay. Results are expressed as percentage of cell viability against the negative control (100%). (e) N2a cells were pre-treated with the compounds for 30 min and incubated during 24 h with 15 mM glutamate and cell viability determined by MTT. Results are expressed as percentage of cell viability against the negative control (100%). All experiments are shown as mean ± S.D. from at least three independent experiments. Statistics: *^,#,†p < 0.05, **^,##,††p < 0.01 and ***^,###p < 0.001. […] | Briefly, N2a cells were seeded at a density of 1 × 10^3 cells/well in 96-well plates, treated with increasing concentrations of VCE-003 or VCE-003.2 for 24 hours and cell viability was measured by the MTT method. […]. […]

CCCCCC1=C(NCC)C(=O)C(C/C=C(\C)CCC=C(C)C)=C(O)C1=O [VCE-003.2]
ERK phosphorylation [1]: induction of extracellular signal-regulated kinase (ERK) phosphorylation | ERK phosphorylation in presence of GW9662 ([1]; + GW9662 5 μM): abolished in the presence of GW9662 | activation of Akt, time course ([1]; phospho-Akt): activated at a higher extent and shortly after VCE-003.2 incubation and lasted until 60 min after incubation | activation of ERK and mTORC1 signaling, time course ([1]; phospho-ERK and phospho-S6): transient activation of ERK and mTORC1 signaling pathways between 15 and 30 min after stimulation | activation of the Nrf2 pathway [2]: none of these bioactivities were induced | prevention of glutamate-induced excitotoxicity [3]: able to prevent excitotoxicity induced by glutamate

From article PMC4949444 (Scientific Reports, 2016)
